Test results taken from patent US11753373B2, “Protease inhibitors as antivirals” (priority 2021, dated 2023).
Where two headings read alike, the source gives them in different places.

What was measured:
SARS-CoV-2 = experiment: Anti-viral in vitro PRNT assay in Vero E6 cells; type: cell-based; details: for EC50: read-out: anti-SARS-CoV2 (PRNT) in Vero E6 EC50
[1] = type: in vitro ADME, Human; details: extraction ratio, compound at 1 uM, human liver microsomes 0.5 mg/mL
Experimental: (§1) Metabolic stability of novel protease inhibitors was determined via liver microsomal stability assay. Human, mouse, SD rat, beagle dog or monkey liver microsomes were incubated with the test compound for 5 to 60 minutes at 37° C., and then the remaining parent compound was quantified by LC-MS/MS. Percentage of the test compound remaining, half-life (t1/2), in vitro intrinsic clearance (CLint, in vitro), in vivo intrinsic clearance (CLint, in vivo), hepatic clearance (CLh) and extraction ratio (ER) were calculated.
(§2) Procedure: The assay was done as described in Baranczewski, P. et al. (2006) Pharmacological Reports 58:453-472; Pearson, P. and Wienkers, L. (2008) Handbook of Drug Metabolism, 2nd Edition. CRC Pres, P.478; and Venkatesh, P. et al. (2007) Biol. Pharm. Bull. 30:1021-2024. 0.625 mg/mL liver microsomes solution was prepared by mixing 2325 μL 100 mM of K-phosphate buffer (pH 7.4) containing 2.5 mM of MgCl2, 1.25 mM of EDTA, and 75 μL microsomes (20 mg/mL) in a vial for each species.
(§3) Positive control compound: (±) Verapamil hydrochloride (Cat No.: V4629; Lot No.: MKBV4993V; Source: Sigma)
(§4) 40 μL aliquots of the liver microsome/test compound mixture were dispensed into 96-well plate in triplicate and pre-warmed the mixture for 5 minutes at 37° C. Then, 10 μL of 5 mM NADPH solution was added to each well to initiate the reaction, and gently mixed. The samples were incubated at 37° C. with gentle shaking.
(§5) For 0-min samples, 200 μL of ACN containing internal standard was added to 40 μL of liver microsome/test compound mixture, followed by addition of 5 mM NADPH, and mixed gently.
(§6) For negative control: 40 μL of liver microsome/test compound mixture was incubated at 37° C. with gentle shaking for 60 minutes, followed by addition of 200 μL ACN containing 1% FA and internal standard and 10 μL of 5 mM NADPH, mixed gently.
(§7) All samples were centrifuged at 4° C. for 20 minutes at 4,000 rpm. Then, 100 μL of the supernatant from each sample was transferred to a new 96-well plate and 100 μL of ultrapure water containing 1% FA was added to each well, and mixed gently. Samples were analyzed by LC-MS/MS.
(§8) Data Analysis: Peak area ratio (Peak Area of test compound/Peak Area of internal standard) was used to represent the concentration of compound in each sample. The remaining percentage (% Remaining) at appointed time points was calculated versus the concentration of compound at 0 min. The Ln value of the remaining percentage was linearly fitted against the incubation time.
(§9) The half-life and clearance were calculated using the following equations:
(§10) Determined percent of the remaining test compound: % remaining=[area at tx/average areas at t0]×100 (1) % metabolized=[100−% remaining] (2)
(§11) Calculated the half-life (t1/2) using the slope (k) of the log-linear regression from the concentration of remaining parent compound versus time (min) relationship: t1/2 (min)=−ln 2/k. (3)
(§12) Clint, in vitro (mL/min/mg) Clint,in vitro=k/c,(c:Liver microsome concentration in the incubation system) (4)
(§13) Hepatic Clearance (CLh) CLh=Clint,in vivo*Hepatic Blood Flow (mL/min/kg)/(Hepatic Blood Flow (mL/min/kg)+Clint,in vivo) (6)
(§14) Extraction ratio (ER): ER=CLint,in vivo/(Qh+CLint,in vivo)*100,Qh:liver blood flow (7)

[2] = type: in vitro ADME; details: extraction ratio, compound at 1 uM; for Liver Microsomal Stability (ER) SD rat: SD rat liver microsomes 0.5 mg/mL; for Liver Microsomal Stability (ER) Beagle dog: beagle dog liver microsomes 0.5 mg/mL; for Liver Microsomal Stability (ER) Mouse: mouse liver microsomes 0.5 mg/mL
Experimental: as §1, §2, §3
as §4, with “shaking. (Final concentrations: compound=1 μM; liver microsomes protein=0.5 mg/mL; MgCl2=2 mM; EDTA=1 mM; ACN=0.1%; DMSO=0.05%).” for “shaking.”
as §5, §6, §7, §8, §9, §10, §11, §12, §13, §14

[3] = Vero E6 cells, 1000 pfu, 3 days, plaque reduction

COC(=O)[C@H](C[C@@H]1CCNC1=O)NC(=O)[C@H](CC(C)C)NC(=O)c1cc2ccccc2[nH]1 [Compound A-1-a, methyl (S)-2-((S)-2-(1H-indole-2-carboxamido)-4-methylpentanamido)-3-((S)-2-oxopyrrolidin-3-yl)propanoate]
anti-SARS-CoV2 (PRNT) in Vero E6 EC50 (μM) (SARS-CoV-2; [3]): inactive

CC(C)C[C@H](NC(=O)c1cc2ccccc2[nH]1)C(=O)N[C@@H](C[C@@H]1CCNC1=O)C(=O)O [Compound A-1-e, (2S)-2-[(2S)-2-[(1H-indol-2-yl)formamido]-4-methylpentanamido]-3-[(3S)-2-oxopyrrolidin-3-yl]propanoic acid]
Liver Microsomal Stability (ER) Human [1]: 0.00
Liver Microsomal Stability (ER) SD rat [2]: −0.02
Liver Microsomal Stability (ER) Beagle dog [2]: 0.02
Liver Microsomal Stability (ER) Mouse [2]: 0.09

O=C[C@H](C[C@@H]1CCNC1=O)NC(=O)[C@H](CC1CCCCC1)NC(=O)c1cc2ccccc2[nH]1 [Compound A-2-c]
EC50 (SARS-CoV-2): 640 nM

CC(C)C[C@@H](NC(=O)c1cc2c(F)cccc2[nH]1)C(=O)N[C@H](C#N)C[C@@H]1CCNC1=O [Compound A-3-b]
Liver Microsomal Stability (ER) Human [1]: 0.18
Liver Microsomal Stability (ER) SD rat [2]: 0.37
Liver Microsomal Stability (ER) Beagle dog [2]: 0.06
Liver Microsomal Stability (ER) Mouse [2]: 0.37

CC(C)C[C@H](NC(=O)c1cc2c(F)cccc2[nH]1)C(=O)N[C@H](C=O)C[C@@H]1CCNC1=O [Compound A-3-c]
EC50 (SARS-CoV-2; [3]): 310 nM
Liver Microsomal Stability (ER) Human [1]: 0.18
Liver Microsomal Stability (ER) SD rat [2]: 0.14
Liver Microsomal Stability (ER) Beagle dog [2]: −0.02
Liver Microsomal Stability (ER) Mouse [2]: 0.14

COc1cccc2[nH]c(C(=O)N[C@@H](CC(C)C)C(=O)N[C@H](C=O)C[C@@H]3CCNC3=O)cc12 [Compound A-5-a]
EC50 (SARS-CoV-2; [3]): 1520 nM
Liver Microsomal Stability (ER) Human [1]: 0.10
Liver Microsomal Stability (ER) SD rat [2]: 0.11
Liver Microsomal Stability (ER) Beagle dog [2]: 0.05
Liver Microsomal Stability (ER) Mouse [2]: 0.19

COc1cccc2[nH]c(C(=O)N[C@@H](CC(C)C)C(=O)N[C@H](C#N)C[C@@H]3CCNC3=O)cc12 [Compound A-5-b]
anti-SARS-CoV2 (PRNT) in Vero E6 EC50 (μM) (SARS-CoV-2; [3]): inactive
Liver Microsomal Stability (ER) Human [1]: 0.08
Liver Microsomal Stability (ER) SD rat [2]: 0.22
Liver Microsomal Stability (ER) Beagle dog [2]: 0.12
Liver Microsomal Stability (ER) Monkey ([2]; monkey liver microsomes 0.5 mg/mL): 0.47
Liver Microsomal Stability (ER) Mouse [2]: 0.11

COc1cccc2[nH]c(C(=O)N[C@@H](CC(C)C)C(=O)N[C@@H](C[C@@H]3CCNC3=O)C(=O)CO)cc12 [Compound A-5-d]
EC50 (SARS-CoV-2; [3]): 3500 nM
Liver Microsomal Stability (ER) Human [1]: 0.09
Liver Microsomal Stability (ER) SD rat [2]: 0.11
Liver Microsomal Stability (ER) Beagle dog [2]: 0.07
Liver Microsomal Stability (ER) Mouse [2]: 0.38

COC(=O)[C@H](C[C@@H]1CCNC1=O)NC(=O)[C@H](CC(C)C)NC(=O)OCc1ccccc1 [Compound B-1-a, methyl (S)-2-((S)-2-(((benzyloxy)carbonyl)-amino)-4-methylpentanamido)-3-((S)-2-oxopyrrolidin-3-yl)propanoate]
anti-SARS-CoV2 (PRNT) in Vero E6 EC50 (μM) (SARS-CoV-2; [3]): inactive

CC(C)C[C@H](NC(=O)OCc1ccccc1)C(=O)N[C@H](C=O)C[C@@H]1CCNC1=O [Compound B-1-b, benzyl ((S)-4-methyl-1-oxo-1-(((S)-1-oxo-3-((S)-2-oxopyrrolidin-3-yl)propan-2-yl)amino)pentan-2-yl)carbamate]
EC50 (SARS-CoV-2; Severe acute respiratory syndrome coronavirus 2, Vero C1008, 72 h): 1130 nM

CC(C)C[C@H](NC(=O)OCc1ccccc1)C(=O)N[C@@H](C[C@@H]1CCNC1=O)C(=O)CCl [Compound B-1-c]
EC50 (SARS-CoV-2): 2290 nM

C=CC(=O)[C@H](C[C@@H]1CCNC1=O)NC(=O)[C@H](CC(C)C)NC(=O)OCc1ccccc1 [Compound B-1-d]
anti-SARS-CoV2 (PRNT) in Vero E6 EC50 (μM) (SARS-CoV-2): inactive

COC(=O)[C@H](C[C@@H]1CCNC1=O)NC(=O)[C@H](CC1CCCCC1)NC(=O)OCc1ccccc1 [Compound B-2-a, methyl (S)-2-((S)-2-(((benzyloxy)carbonyl)amino)-3-cyclohexylpropan-amido)-3-((S)-2-oxopyrrolidin-3-yl)propanoate]
anti-SARS-CoV2 (PRNT) in Vero E6 EC50 (μM) (SARS-CoV-2; [3]): inactive

COC(=O)[C@H](C[C@@H]1CCNC1=O)NC(=O)[C@@H]1[C@@H]2[C@H](CN1C(=O)[C@@H](NC(=O)C(F)(F)F)C(C)(C)C)C2(C)C [Compound D-1-a, methyl (2S)-2-{[(1R,2S,5S)-3-[(2S)-3,3-dimethyl-2-(trifluoroacetamido)-butanoyl]-1,5-dihydrogenio-6,6-dimethyl-3-azabicyclo[3.1.0]hexan-2-yl]formamido}-3-[(3S)-2-oxopyrrolidin-3-yl]propanoate]
anti-SARS-CoV2 (PRNT) in Vero E6 EC50 (μM) (SARS-CoV-2): inactive

CC(C)(C)[C@H](NC(=O)C(F)(F)F)C(=O)N[C@@H](CC1CCCCC1)C(=O)N[C@H](C#N)C[C@@H]1CCNC1=O [Compound D-4-a]
Liver Microsomal Stability (ER) Human [1]: 0.46
Liver Microsomal Stability (ER) SD rat [2]: 0.29
Liver Microsomal Stability (ER) Beagle dog [2]: 0.21
Liver Microsomal Stability (ER) Mouse [2]: 0.72

C[C@@H](C=O)NC(=O)[C@H](CC1CCCCC1)N(C(=O)OCc1ccccc1)C1CC1 [Compound E-1-b]
anti-SARS-CoV2 (PRNT) in Vero E6 EC50 (μM) (SARS-CoV-2): inactive

COC(=O)[C@H](C)NC(=O)[C@@H]1[C@@H]2[C@H](CN1C(=O)[C@@H](NC(=O)C(F)(F)F)C(C)(C)C)C2(C)C [Compound F-1-a, methyl ((1R,2S,5S)-3-((S)-3,3-dimethyl-2-(2,2,2-trifluoroacetamido)butanoyl)-6,6-dimethyl-3-azabicyclo[3.1.0]hexane-2-carbonyl)-L-alaninate]
anti-SARS-CoV2 (PRNT) in Vero E6 EC50 (μM) (SARS-CoV-2): inactive

C[C@@H](C#N)NC(=O)[C@@H]1[C@@H]2[C@H](CN1C(=O)[C@@H](NC(=O)C(F)(F)F)C(C)(C)C)C2(C)C [Compound F-1-c]
anti-SARS-CoV2 (PRNT) in Vero E6 EC50 (μM) (SARS-CoV-2): inactive

C=CC(=O)N[C@H](C)NC(=O)[C@@H]1[C@@H]2[C@H](CN1C(=O)[C@@H](NC(=O)C(F)(F)F)C(C)(C)C)C2(C)C [Compound F-1-d]
anti-SARS-CoV2 (PRNT) in Vero E6 EC50 (μM) (SARS-CoV-2): inactive

COC(=O)[C@@H](NC(=O)[C@@H]1[C@@H]2[C@H](CN1C(=O)[C@@H](NC(=O)C(F)(F)F)C(C)(C)C)C2(C)C)C(C)C [Compound F-2-a, methyl ((1R,2S,5S)-3-((S)-3,3-dimethyl-2-(2,2,2-trifluoroacetamido)-butanoyl)-6,6-dimethyl-3-azabicyclo[3.1.0]hexane-2-carbonyl)-L-valinate]
anti-SARS-CoV2 (PRNT) in Vero E6 EC50 (μM) (SARS-CoV-2): inactive

CC(C)[C@@H](C#N)NC(=O)[C@@H]1[C@@H]2[C@H](CN1C(=O)[C@@H](NC(=O)C(F)(F)F)C(C)(C)C)C2(C)C [Compound F-2-c]
anti-SARS-CoV2 (PRNT) in Vero E6 EC50 (μM) (SARS-CoV-2): inactive

C=CC(=O)N[C@@H](NC(=O)[C@@H]1[C@@H]2[C@H](CN1C(=O)[C@@H](NC(=O)C(F)(F)F)C(C)(C)C)C2(C)C)C(C)C [Compound F-2-d]
anti-SARS-CoV2 (PRNT) in Vero E6 EC50 (μM) (SARS-CoV-2): inactive

C[C@@H](C#N)NC(=O)[C@@H]1[C@@H]2[C@H](CN1C(=O)[C@@H](NC(=O)C(F)(F)F)C1CC1)C2(C)C [Compound F-3-a]
anti-SARS-CoV2 (PRNT) in Vero E6 EC50 (μM) (SARS-CoV-2): inactive

C=CC(=O)N[C@@H](NC(=O)[C@@H]1[C@@H]2[C@H](CN1C(=O)[C@@H](NC(=O)C(F)(F)F)C1CC1)C2(C)C)C(C)C [Compound F-4-b]
anti-SARS-CoV2 (PRNT) in Vero E6 EC50 (μM) (SARS-CoV-2): inactive
